Reference: patent publication US12503454B2, “LPA receptor antagonists and uses thereof” (Gilead Sciences, Inc., priority 2021, dated 2025)

target: human LPAR1 (Homo sapiens, UniProt Q92633); test: LPAR1 intracellular calcium mobilization assay (antagonist mode, FLIPR); type: cell-based; details: CHO-K1 EDG2 cells expressing human LPAR1; test compound 0.5 nM to 10 μM pre-incubated 60 minutes at 37° C., then LPA 18:2 at EC80 concentration (100 nM)
Method: In vitro LPAR1 activity was measured in an intracellular calcium mobilization assay. CHO-K1 EDG2 cells (DiscoverX cat #93-0644C2) expressing human LPAR1 (NM_001401.3) were seeded in a total volume of 25 μL of Dulbecco's Modification of Eagle's Medium (DMEM) with 10% Fetal Bovine Serum, 1× PenStrepGlutamine, 300 μg/ml Hygromycin, and 800 μg/ml G418 into 384-well tissue culture plate (Grenier #781091) at 15,000 cells/well and incubated at 37° C. overnight. Prior to testing, 25 μL Calcium Loading Dye Component A (FLIPR Calcium 6 Assay Kit Molecular Device # R8190) and 2.5 mM Probenecid (Invitrogen # P36400, prepared fresh) in Hank's Balanced Salt Solution (Corning #21-023-CV), 20 mM HEPES (Corning #25-060-CI), 0.1% Bovine Serum Albumin (Sigma-Aldrich # A7906-500G) was add to the cells for 60 minutes at 37° C.
Agonist dose curves of LPA 18:2 (Avanti Polar Lipids cat #857138, 0.5 nM to 10 μM) were recorded to determine the LPA 18:2 EC80 for subsequent antagonist assays. For agonist dose curves, cells were removed from the incubator 2 hours after dye loading and transferred to the FLIPR Tetra instrument (Molecular Devices, San Jose, CA). Calcium mobilization was monitored for 5 min and 10 μL 6×LPA in HBSS/20 mM Hepes/0.1% bovine serum albumin (BSA) was added to the cells 5 seconds into the assay.
To determine the LPAR1 antagonist activity of test compounds, cells were pre-incubated with test compound at a dose range of 0.5 nM to 10 μM, followed by LPA at EC80 concentration (100 nM). After dye loading, cells were removed from the incubator and 0.3 μL of 200× antagonist was added. Cells were incubated for 60 minutes at 37° C. Antagonist activity was measured on a FLIPR Tetra. Calcium mobilization was monitored for 3.5 minutes and 10 μL 6×EC80 LPA in HBSS, 20 mM HEPES, and 0.1% BSA was added to the cells 5 seconds into the assay. Signal amplitude (Maximum minus minimum) values were plotted against log10 of antagonist concentration using Dose Response Tool (Gilead Sciences Inc.) to determine […].
To assess the antagonistic potential of exemplified compounds […] were determined for Compounds 1 to 66 in the LPAR1 calcium mobilization assay. The compound numbers correspond to the compound numbers in Examples 1 to 18. N/A=not available.

Chain of human LPAR1 (Q92633 whole entry): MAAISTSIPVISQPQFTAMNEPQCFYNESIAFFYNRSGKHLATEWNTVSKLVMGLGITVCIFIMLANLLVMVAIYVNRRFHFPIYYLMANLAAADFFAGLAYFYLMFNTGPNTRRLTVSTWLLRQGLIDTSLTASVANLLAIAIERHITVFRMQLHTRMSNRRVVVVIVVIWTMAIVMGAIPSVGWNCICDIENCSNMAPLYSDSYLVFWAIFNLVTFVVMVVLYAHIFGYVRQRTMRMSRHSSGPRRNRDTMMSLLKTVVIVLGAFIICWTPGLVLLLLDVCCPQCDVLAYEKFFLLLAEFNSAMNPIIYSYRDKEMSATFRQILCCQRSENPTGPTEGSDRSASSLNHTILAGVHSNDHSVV

**Q.** How did the EC50 turn out when `C[C@@H](OC(=O)Nc1c(-c2ccc(C(=O)NC34CC(C#N)(C3)C4)c(C(F)(F)F)n2)nnn1C)c1cccnc1Cl` [Compound 62, (R)-1-(2-chloropyridin-3-yl)ethyl (4-(5-((3-cyanobicyclo[1.1.1]pentan-1-yl)carbamoyl)-6-(trifluoromethyl)pyridin-2-yl)-1-methyl-1H-1,2,3-triazol-5-yl)carbamate] was run?
**A.** Its EC50 is 14.5 nM.

**Q.** `C[C@@H](OC(=O)Nc1c(-c2ccc(C(=O)Nc3ccc(C4CC4)nc3)cn2)nnn1C)c1cc(F)cnc1F` [Compound 28, (R)-1-(2,5-difluoro-pyridin-3-yl)ethyl (4-(5-((6-cyclo-propylpyridin-3-yl)carbamoyl)-pyridin-2-yl)-1-methyl-1H-1,2,3-triazol-5-yl)-carbamate] was tested. Which EC50 did it give?
**A.** Its EC50 is 427 nM.

**Q.** For `C[C@@H](OC(=O)Nc1c(-c2ccc(C(=O)Nc3ccnc(C#N)c3)cn2)nnn1C)c1cc(F)cnc1Cl` [Compound 50, (R)-1-(2-chloro-5-fluoropyridin-3-yl)ethyl (4-(5-((2-cyanopyridin-4-yl)carbamoyl)-pyridin-2-yl)-1-methyl-1H-1,2,3-triazol-5-yl)-carbamate], which EC50 is on record?
**A.** The EC50 was 8.7 nM.

**Q.** `C[C@@H](OC(=O)Nc1c(-c2ccc(C(=O)NC34CC(F)(C3)C4)c(F)n2)nnn1C)c1cccnc1Cl` [Compound 63, (R)-1-(2-chloropyridin-3-yl)ethyl (4-(6-fluoro-5-((3-fluorobicyclo[1.1.1]pentan-1-yl)carbamoyl)pyridin-2-yl)-1-methyl-1H-1,2,3-triazol-5-yl)carbamate] was tested. Which EC50 did it give?
**A.** The EC50 was 145 nM.

**Q.** How did the EC50 turn out when `C[C@@H](OC(=O)Nc1c(-c2ccc(C(=O)Nc3ccc(N4CCOCC4)cc3)cn2)nnn1C)c1cccnc1Cl` [Compound 17, (R)-1-(2-chloro-pyridin-3-yl)-ethyl (1-methyl-4-(5-((4-morph-olinophenyl)-carbamoyl)-pyridin-2-yl)-1H-1,2,3-triazol-5-yl)carbamate] was run?
**A.** Its EC50 is 649 nM.

**Q.** `C[C@@H](OC(=O)Nc1c(-c2ccc(C(=O)Nc3ccnc(C(F)F)c3)cn2)nnn1C)c1cc(F)cnc1F` [Compound 31, (R)-1-(2,5-difluoro-pyridin-3-yl)ethyl (4-(5-((2-(difluoro-methyl)pyridin-4-yl)carbamoyl)-pyridin-2-yl)-1-methyl-1H-1,2,3-triazol-5-yl)-carbamate] was tested. Which EC50 did it give?
**A.** Its EC50 is 14.9 nM.

**Q.** `C[C@@H](OC(=O)Nc1c(-c2ccc(C(=O)NC34CC(C#N)(C3)C4)cn2)nnn1C)c1cc(F)cnc1Cl` [Compound 47, (R)-1-(2-chloro-5-fluoropyridin-3-yl)ethyl (4-(5-((3-cyanobicyclo-[1.1.1]pentan-1-yl)carbamoyl)-pyridin-2-yl)-1-methyl-1H-1,2,3-triazol-5-yl)-carbamate] was tested. Which EC50 did it give?
**A.** The EC50 was less than 4.6 nM.

**Q.** With `C[C@@H](OC(=O)Nc1c(-c2ccc(C(=O)NC34CC(S(C)(=O)=O)(C3)C4)cn2)nnn1C)c1cc(F)cnc1F` [Compound 29, (R)-1-(2,5-difluoro-pyridin-3-yl)ethyl (1-methyl-4-(5-((3-(methylsulfon-yl)bicyclo[1.1.1]-pentan-1-yl)carbam-oyl)pyridin-2-yl)-1H-1,2,3-triazol-5-yl)carbamate] as the molecule, how does the EC50 read?
**A.** The EC50 was 3420 nM.

**Q.** For `C[C@@H](OC(=O)Nc1c(-c2ccc(C(=O)Nc3cccc(C(F)(F)F)c3)cn2)nnn1C)c1cc(F)cnc1F` [Compound 30, (R)-1-(2,5-difluoro-pyridin-3-yl)ethyl (1-methyl-4-(5-((3-(trifluoromethyl)-phenyl)carbam-oyl)pyridin-2-yl)-1H-1,2,3-triazol-5-yl)carbamate], which EC50 is on record?
**A.** Its EC50 is 93 nM.

**Q.** For `C#CC12CC(NC(=O)c3ccc(-c4nnn(C)c4NC(=O)O[C@H](C)c4cc(F)cnc4Cl)nc3)(C1)C2` [Compound 54, (R)-1-(2-chloro-5-fluoropyridin-3-yl)ethyl (4-(5-((3-ethynylbicyclo-[1.1.1]pentan-1-yl)carbamoyl)-pyridin-2-yl)-1-methyl-1H-1,2,3-triazol-5-yl)-carbamate], which EC50 is on record?
**A.** The EC50 was less than 4.6 nM.

**Q.** With `C[C@@H](OC(=O)Nc1c(-c2ccc(C(=O)NC34CC(C#N)(C3)C4)c(Cl)n2)nnn1C)c1cccnc1Cl` [Compound 65, (R)-1-(2-chloropyridin-3-yl)ethyl (4-(6-chloro-5-((3-cyanobicyclo[1.1.1]pentan-1-yl)carbamoyl)pyridin-2-yl)-1-methyl-1H-1,2,3-triazol-5-yl)carbamate] as the molecule, how does the EC50 read?
**A.** The EC50 was less than 4.6 nM.

**Q.** `C[C@@H](OC(=O)Nc1c(-c2ccc(C(=O)Nc3ccc(-c4ccncc4)cc3)cn2)nnn1C)c1cc(F)cnc1F` [Compound 41, (R)-1-(2,5-difluoro-pyridin-3-yl)ethyl (1-methyl-4-(5-((4-(pyridin-4-yl)phenyl)carbam-oyl)pyridin-2-yl)-1H-1,2,3-triazol-5-yl)carbamate] was tested. Which EC50 did it give?
**A.** Its EC50 is 61 nM.

**Q.** With `C[C@@H](OC(=O)Nc1c(-c2cc(F)c(C(=O)NC34CC(C#N)(C3)C4)cn2)nnn1C)c1cccnc1Cl` [Compound 61, (R)-1-(2-chloropyridin-3-yl)ethyl (4-(5-((3-cyanobicyclo[1.1.1]pentan-1-yl)carbamoyl)-4-fluoropyridin-2-yl)-1-methyl-1H-1,2,3-triazol-5-yl)carbamate] as the molecule, how does the EC50 read?
**A.** Its EC50 is 233 nM.

**Q.** Which EC50 does the source give for `C[C@@H](OC(=O)Nc1c(-c2ccc(C(=O)NC34CC(Cl)(C3)C4)cn2)nnn1C)c1cccnc1Cl` [Compound 2, (R)-1-(2-chloropyridin-3-yl)ethyl (4-(5-((3-chlorobicyclo[1.1.1]pentan-1-yl)carbamoyl)pyridin-2-yl)-1-methyl-1H-1,2,3-triazol-5-yl)carbamate] here?
**A.** Its EC50 is 8.1 nM.

**Q.** With `C[C@@H](OC(=O)Nc1c(-c2ccc(C(=O)Nc3cnc(C(F)(F)F)nc3)cn2)nnn1C)c1cc(F)cnc1F` [Compound 24, (R)-1-(2,5-difluoro-pyridin-3-yl)ethyl (1-methyl-4-(5-((2-(trifluorometh-yl)pyrimidin-5-yl)-carbamoyl)pyridin-2-yl)-1H-1,2,3-triazol-5-yl)-carbamate] as the molecule, how does the EC50 read?
**A.** Its EC50 is 222 nM.

**Q.** For `C[C@@H](OC(=O)Nc1c(-c2ccc(C(=O)NC34CC(Cl)(C3)C4)cn2)nnn1C)c1cc(F)cnc1F` [Compound 21, (R)-1-(2,5-difluoro-pyridin-3-yl)ethyl (4-(5-((3-chloro-bicyclo[1.1.1]-pentan-1-yl)-carbamoyl)pyridin-2-yl)-1-methyl-1H-1,2,3-triazol-5-yl)carbamate], which EC50 is on record?
**A.** Its EC50 is 44.8 nM.

**Q.** `C[C@@H](OC(=O)Nc1c(-c2ncc(C(=O)NC34CC(C#N)(C3)C4)cc2F)nnn1C)c1cccnc1Cl` [Compound 59, (R)-1-(2-chloropyridin-3-yl)ethyl (4-(5-((3-cyanobicyclo[1.1.1]pentan-1-yl)carbamoyl)-3-fluoropyridin-2-yl)-1-methyl-1H-1,2,3-triazol-5-yl)carbamate] was tested. Which EC50 did it give?
**A.** The EC50 was 23.2 nM.

**Q.** Which EC50 does the source give for `C[C@@H](OC(=O)Nc1c(-c2ccc(C(=O)NC34CC(F)(C3)C4)cn2)nnn1C)c1cc(F)cnc1Cl` [Compound 46, (R)-1-(2-chloro-5-fluoropyridin-3-yl)ethyl (4-(5-((3-fluorobicyclo-[1.1.1]pentan-1-yl)carbamoyl)-pyridin-2-yl)-1-methyl-1H-1,2,3-triazol-5-yl)-carbamate] here?
**A.** Its EC50 is 88.1 nM.

**Q.** How did the EC50 turn out when `C[C@@H](OC(=O)Nc1c(-c2ccc(C(=O)Nc3ccc(F)nc3)cn2)nnn1C)c1cccnc1Cl` [Compound 9, (R)-1-(2-chloro-pyridin-3-yl)-ethyl (4-(5-((6-fluoropyridin-3-yl)carbam-oyl)pyridin-2-yl)-1-methyl-1H-1,2,3-triazol-5-yl)carbamate] was run?
**A.** The EC50 was 325 nM.

**Q.** `C[C@@H](OC(=O)Nc1c(-c2ccc(C(=O)NC34CC(C(F)F)(C3)C4)cn2)nnn1C)c1cc(F)cnc1F` [Compound 23, (R)-1-(2,5-difluoro-pyridin-3-yl)ethyl (4-(5-((3-(difluoro-methyl)bicyclo-[1.1.1]pentan-1-yl)carbamoyl)-pyridin-2-yl)-1-methyl-1H-1,2,3-triazol-5-yl)-carbamate] was tested. Which EC50 did it give?
**A.** The EC50 was 159 nM.

**Q.** For `C[C@@H](OC(=O)Nc1c(-c2ccc(C(=O)NC34CC(C)(C3)C4)cn2)nnn1C)c1cccnc1Cl` [Compound 8, (R)-1-(2-chloro-pyridin-3-yl)-ethyl (1-methyl-4-(5-((3-methyl-bicyclo[1.1.1]-pentan-1-yl)-carbamoyl)-pyridin-2-yl)-1H-1,2,3-triazol-5-yl)carbamate], which EC50 is on record?
**A.** Its EC50 is 30.4 nM.

**Q.** How did the EC50 turn out when `C[C@@H](OC(=O)Nc1c(-c2ccc(C(=O)Nc3cc(Cl)nc(Cl)c3)cn2)nnn1C)c1cc(F)cnc1Cl` [Compound 51, (R)-1-(2-chloro-5-fluoropyridin-3-yl)ethyl (4-(5-((2,6-dichloro-pyridin-4-yl)-carbamoyl)pyridin-2-yl)-1-methyl-1H-1,2,3-triazol-5-yl)carbamate] was run?
**A.** The EC50 was less than 4.6 nM.
